# Paper PMC8307938, “The Lysozyme Inhibitor Thionine Acetate Is Also an Inhibitor of the Soluble Lytic Transglycosylase Slt35 from Escherichia coli” (Molecules, 2021)
# Biological target: T1, Slt35 (Escherichia coli, UniProt P41052)
# T1 construct: gene mltB; N-terminal His-tag
# T1 sequence (P41052 19-361): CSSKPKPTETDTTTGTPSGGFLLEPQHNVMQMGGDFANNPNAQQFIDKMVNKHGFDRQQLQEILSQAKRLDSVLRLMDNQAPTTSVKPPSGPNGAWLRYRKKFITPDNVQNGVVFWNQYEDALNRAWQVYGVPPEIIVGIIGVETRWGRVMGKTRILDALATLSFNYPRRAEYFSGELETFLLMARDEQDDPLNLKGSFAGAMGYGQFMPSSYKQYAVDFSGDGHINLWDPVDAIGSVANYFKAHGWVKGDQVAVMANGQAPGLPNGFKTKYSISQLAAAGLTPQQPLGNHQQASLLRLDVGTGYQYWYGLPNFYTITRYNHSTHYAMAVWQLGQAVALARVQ
# Experiment: saturation transfer difference NMR ([…] compound, […] Slt35; weak; no inhibition up to […])
# Assay type: binding
compound,measurement,value
OC[C@H]1NC[C@H](O)[C@@H](O)[C@@H]1O [1-deoxynojirimycin],"saturation transfer difference NMR (5 mM compound, 20 μM Slt35); weak; no inhibit","weak enhancement of signals from 1-deoxynojirimycin on selective excitation of Slt35 (Figure S1), suggesting that this compound is capable of binding"
